Here are results for 14 molecules from patent US20250127801A1, “BRIDGED TRICYCLIC CARBAMOYLPYRIDONE COMPOUNDS AND USES THEREOF” (priority 2023, published 2025).

One data set can be described thus: physchem. To be noted: 23 °C, thermodynamic from solid; for solubility thermodynamic at 24 h: FaSSIF; for solubility thermodynamic: fassif.
The next data set can be described thus: in vitro. Particulars: human; for CC50 at 5 days: uninfected MT-4 cells.
In a further data set the test system is HIV-1 (IIIB). Nature of the data set: microbe, parasite or virus in culture. It is filed as cell-based.
Where [1] appears, read: Human immunodeficiency virus 1, MT4, 120 h, HIV-1 (IIIB) replication in MT-4 cells, 5 days incubation, Cell Titer Glo, read-out: MT4 EC50.
Setting [2] is: Human immunodeficiency virus 1, IIIB, MT4, 120 h, read-out: MT4 EC50 (nM).

Converted amounts (≈) assume the structure as drawn. Where two headings read alike, the source gives them in different places.

The molecule `CC1=NO[C@@]2(CC[C@H](C)N3C[C@H]2n2cc(C(=O)NCc4ccc(F)cc4F)c(=O)c(OCOC(=O)[C@@H]4[C@H](COP(=O)(O)O)[C@H]4C(=O)O)c2C3=O)C1` [Compound 78, (1R,2R,3R)-2-(((((3′S,5S,7′R)-10′-((2,4-difluorobenzyl)carbamoyl)-3,3′-dimethyl-1′,11′-dioxo-1′,4′,5′,11′-tetrahydro-3′H,4H,7′H-spiro[isoxazole-5,6′-[2,7]methanopyrido[1,2-a][1,4]diazonin]-12′-yl)oxy)methoxy)carbonyl)-3-((phosphonooxy)methyl)cyclopropane-1-carboxylic acid] came in with a thermodynamic solubility at 24 h in “physchem” of 5140 µg/mL (≈ 6.95 mM). In “in vitro”, this molecule came in with a CC50 at 5 days of 8050 nM. The EC50 with HIV-1 (IIIB) (setting [1]) was found to be 2.2 nM.

In turn, `CC1=NO[C@@]2(CC[C@H](C)N3C[C@H]2n2cc(C(=O)NCc4ccc(F)cc4F)c(=O)c(OCOC(=O)N4CCOC[C@H]4COP(=O)(O)O)c2C3=O)C1` [Compound 64, (((3′S,5S,7′R)-10′-((2,4-difluorobenzyl)carbamoyl)-3,3′-dimethyl-1′,11′-dioxo-1′,4′,5′,11′-tetrahydro-3′H,4H,7′H-spiro[isoxazole-5,6′-[2,7]methanopyrido[1,2-a][1,4]diazonin]-12′-yl)oxy)methyl (3S)-3-((phosphonooxy)methyl)morpholine-4-carboxylate] yielded a solubility (thermodynamic) at 24 h in the data set “physchem” of 4840 µg/mL (≈ 6.54 mM). In the data set “in vitro”, the CC50 at 5 days was no less than 50000 nM. The concentration for a half-maximal effect (EC50) with HIV-1 (IIIB) (setting [1]) worked out at 21.4 nM.

Turning to `CC1=NO[C@@]2(CC[C@H](C)N3C[C@H]2n2cc(C(=O)NCc4ccc(F)cc4F)c(=O)c(OCOC(=O)O[C@H]4CCCC[C@H]4OP(=O)(O)O)c2C3=O)C1` [Compound 51, (((3′S,5S,7′R)-10′-((2,4-difluorobenzyl)carbamoyl)-3,3′-dimethyl-1′,11′-dioxo-1′,4′,5′,11′-tetrahydro-3′H,4H,7′H-spiro[isoxazole-5,6′-[2,7]methanopyrido[1,2-a][1,4]diazonin]-12′-yl)oxy)methyl ((1S,2R)-2-(phosphonooxy)cyclohexyl) carbonate], in “physchem”, the solubility (thermodynamic) at 24 h was 4400 µg/mL (≈ 5.95 mM). For the same molecule, the CC50 at 5 days in “in vitro” is 21200 nM. The concentration giving a half-maximal response (EC50) in the data set with HIV-1 (IIIB) (setting [1]) came out at 2 nM.

Consider `CC1=NO[C@@]2(CC[C@H](C)N3C[C@H]2n2cc(C(=O)NCc4ccc(F)cc4F)c(=O)c(OC(=O)N(C)c4ncccc4CN(CC(=O)O)C(=O)OCOP(=O)(O)O)c2C3=O)C1` [Compound 6, N-((2-(((((3′S,5S,7′R)-10′-((2,4-difluorobenzyl)carbamoyl)-3,3′-dimethyl-1′,11′-dioxo-1′,4′,5′,11′-tetrahydro-3′H,4H,7′H-spiro[isoxazole-5,6′-[2,7]methanopyrido[1,2-a][1,4]diazonin]-12′-yl)oxy)carbonyl)(methyl)amino)pyridin-3-yl)methyl)-N-(((phosphonooxy)methoxy)carbonyl)glycine], for which, in “physchem”, the thermodynamic solubility turned out to be 4810 µg/mL (≈ 5.58 mM). The molecule also displayed a CC50 in “in vitro” of 10100 nM. In addition, the EC50 with HIV-1 (IIIB) (setting [2]) came out at 0.917 nM.

With `CC1=NO[C@@]2(CC[C@H](C)N3C[C@H]2n2cc(C(=O)NCc4ccc(F)cc4F)c(=O)c(OCOC(=O)N4CCC[C@H]4COP(=O)(O)O)c2C3=O)C1` [Compound 66, (((3′S,5S,7′R)-10′-((2,4-difluorobenzyl)carbamoyl)-3,3′-dimethyl-1′,11′-dioxo-1′,4′,5′,11′-tetrahydro-3′H,4H,7′H-spiro[isoxazole-5,6′-[2,7]methanopyrido[1,2-a][1,4]diazonin]-12′-yl)oxy)methyl (2S)-2-((phosphonooxy)methyl)pyrrolidine-1-carboxylate], in the data set “physchem”, the thermodynamic solubility at 24 h was 4820 µg/mL (≈ 6.67 mM). The molecule further registered a CC50 at 5 days in “in vitro” of no less than 50000 nM. For the same molecule, in the data set on HIV-1 (IIIB) (setting [1]), the EC50 came to 63.8 nM.

In “physchem”, `CCCCCCCCCCCCCC(=O)Nc1ccc(CC(=O)Oc2c3n(cc(C(=O)NCc4ccc(F)cc4F)c2=O)[C@@H]2CN(C3=O)[C@@H](C)CC[C@]23CC(C)=NO3)cc1` [Compound 94, (3′S,5S,7′R)-10′-((2,4-difluorobenzyl)carbamoyl)-3,3′-dimethyl-1′,11′-dioxo-1′,4′,5′,11′-tetrahydro-3′H,4H,7′H-spiro[isoxazole-5,6′-[2,7]methanopyrido[1,2-a][1,4]diazonin]-12′-yl 2-(4-tetradecanamidophenyl)acetate] displayed a thermodynamic solubility at 24 h of 19 µg/mL (≈ 0.0229 mM). Moreover, the CC50 at 5 days in the data set “in vitro” was no less than 50000 nM. The EC50 in the data set on HIV-1 (IIIB) (setting [1]) stood at 3.2 nM.

With `CC1=NO[C@@]2(CC[C@H](C)N3C[C@H]2n2cc(C(=O)NCc4ccc(F)cc4F)c(=O)c(OCOC(=O)[C@@H]4CC[C@@H]4CN(CC(=O)O)C(=O)OCOP(=O)(O)O)c2C3=O)C1` [Compound 80, N-(((1S,2R)-2-(((((3′S,5S,7′R)-10′-((2,4-difluorobenzyl)carbamoyl)-3,3′-dimethyl-1′,11′-dioxo-1′,4′,5′,11′-tetrahydro-3′H,4H,7′H-spiro[isoxazole-5,6′-[2,7]methanopyrido[1,2-a][1,4]diazonin]-12′-yl)oxy)methoxy)carbonyl)cyclobutyl)methyl)-N-(((phosphonooxy)methoxy)carbonyl)glycine], the solubility (thermodynamic) in the data set “physchem” stood at 4150 µg/mL (≈ 4.94 mM). In the data set “in vitro”, this molecule gave a CC50 of 10100 nM. Moreover, the EC50 in the data set on HIV-1 (IIIB) (setting [2]) is 0.785 nM.

In “physchem”, `CC1=NO[C@@]2(CC[C@H](C)N3C[C@H]2n2cc(C(=O)NCc4ccc(F)cc4F)c(=O)c(OC(=O)N(C)c4ncccc4COP(=O)(O)O)c2C3=O)C1` [Compound 1, (3′S,5S,7′R)-10′-((2,4-difluorobenzyl)carbamoyl)-3,3′-dimethyl-1′,11′-dioxo-1′,4′,5′,11′-tetrahydro-3′H,4H,7′H-spiro[isoxazole-5,6′-[2,7]methanopyrido[1,2-a][1,4]diazonin]-12′-yl methyl(3-((phosphonooxy)methyl)pyridin-2-yl)carbamate] returned a thermodynamic solubility of 4900 µg/mL (≈ 6.71 mM). Moreover, in the data set “in vitro”, the CC50 was 15900 nM. For the same molecule, the EC50 in the data set with HIV-1 (IIIB) (setting [2]) stood at 3.48 nM.

`CC1=NO[C@@]2(CC[C@H](C)N3C[C@H]2n2cc(C(=O)NCc4ccc(F)cc4F)c(=O)c(OCOC(=O)OCC4(COP(=O)(O)O)CCC4)c2C3=O)C1` [Compound 47, (((3′S,5S,7′R)-10′-((2,4-difluorobenzyl)carbamoyl)-3,3′-dimethyl-1′,11′-dioxo-1′,4′,5′,11′-tetrahydro-3′H,4H,7′H-spiro[isoxazole-5,6′-[2,7]methanopyrido[1,2-a][1,4]diazonin]-12′-yl)oxy)methyl ((1-((phosphonooxy)methyl)cyclobutyl)methyl) carbonate] yielded a solubility (thermodynamic) at 24 h in “physchem” of 4860 µg/mL (≈ 6.57 mM). For the same molecule, the CC50 at 5 days in the data set “in vitro” turned out to be 11200 nM. The EC50 in the data set with HIV-1 (IIIB) (setting [1]) was determined as 2.22 nM.

`CC1=NO[C@@]2(CC[C@H](C)N3C[C@H]2n2cc(C(=O)NCc4ccc(F)cc4F)c(=O)c(OCc4ccccc4OP(=O)(O)O)c2C3=O)C1` [Compound 69, 2-((((3′S,5S,7′R)-10′-((2,4-difluorobenzyl)carbamoyl)-3,3′-dimethyl-1′,11′-dioxo-1′,4′,5′,11′-tetrahydro-3′H,4H,7′H-spiro[isoxazole-5,6′-[2,7]methanopyrido[1,2-a][1,4]diazonin]-12′-yl)oxy)methyl)phenyl dihydrogen phosphate] displayed a solubility (thermodynamic) in the data set “physchem” of 5140 µg/mL. In addition, the CC50 in the data set “in vitro” was determined as 14100 nM. Also, the EC50 with HIV-1 (IIIB) (setting [2]) was 1.78 nM.

With `COC1=NO[C@@]2(CC[C@H](C)N3C[C@H]2n2cc(C(=O)NCc4ccc(F)cc4F)c(=O)c(OCOC(=O)OCC4(COP(=O)(O)O)CCC4)c2C3=O)C1` [Compound 48, (((3′S,5S,7′R)-10′-((2,4-difluorobenzyl)carbamoyl)-3-methoxy-3′-methyl-1′,11′-dioxo-1′,4′,5′,11′-tetrahydro-3′H,4H,7′H-spiro[isoxazole-5,6′-[2,7]methanopyrido[1,2-a][1,4]diazonin]-12′-yl)oxy)methyl ((1-((phosphonooxy)methyl)cyclobutyl)methyl) carbonate], the thermodynamic solubility at 24 h in the data set “physchem” was 4920 µg/mL (≈ 6.51 mM). Also, the CC50 at 5 days in “in vitro” came out at 15700 nM. The EC50 in the data set on HIV-1 (IIIB) (setting [1]) turned out to be 3.82 nM.

As for `CC1=NO[C@@]2(CC[C@H](C)N3C[C@H]2n2cc(C(=O)NCc4ccc(F)cc4F)c(=O)c(OC(=O)N(C)c4ncc(C(=O)N[C@@H](CC(=O)O)C(=O)O)cc4COP(=O)(O)O)c2C3=O)C1` [Compound 84, (6-(((((3′S,5S,7′R)-10′-((2,4-difluorobenzyl)carbamoyl)-3,3′-dimethyl-1′,11′-dioxo-1′,4′,5′,11′-tetrahydro-3′H,4H,7′H-spiro[isoxazole-5,6′-[2,7]methanopyrido[1,2-a][1,4]diazonin]-12′-yl)oxy)carbonyl)(methyl)amino)-5-((phosphonooxy)methyl)nicotinoyl)-L-aspartic acid], the thermodynamic solubility in the data set “physchem” came to 5580 µg/mL (≈ 6.27 mM). Also, the CC50 in the data set “in vitro” is no less than 50000 nM. Besides, the EC50 with HIV-1 (IIIB) (setting [2]) is 38 nM.

Consider `CC1=NO[C@@]2(CC[C@H](C)N3C[C@H]2n2cc(C(=O)NCc4ccc(F)cc4F)c(=O)c(OCOC(=O)N(C)c4ncccc4COC(=O)[C@@H](N)C(C)C)c2C3=O)C1` [Compound 12, (2-((((((3′S,5S,7′R)-10′-((2,4-difluorobenzyl)carbamoyl)-3,3′-dimethyl-1′,11′-dioxo-1′,4′,5′,11′-tetrahydro-3′H,4H,7′H-spiro[isoxazole-5,6′-[2,7]methanopyrido[1,2-a][1,4]diazonin]-12′-yl)oxy)methoxy)carbonyl)(methyl)amino)pyridin-3-yl)methyl L-valinate], for which the thermodynamic solubility at 24 h in the data set “physchem” stood at 2700 µg/mL (≈ 3.47 mM). For the same molecule, the CC50 at 5 days in “in vitro” came out at 14600 nM. Also, in the data set on HIV-1 (IIIB) (setting [1]), the EC50 came out at 4.33 nM.

In the case of `COC1=NO[C@@]2(CC[C@H](C)N3C[C@H]2n2cc(C(=O)NCc4ccc(F)cc4F)c(=O)c(OCOC(=O)N(C)C[C@@H]4CCCN4)c2C3=O)C1` [Compound 15, (((3′S,5S,7′R)-10′-((2,4-difluorobenzyl)carbamoyl)-3-methoxy-3′-methyl-1′,11′-dioxo-1′,4′,5′,11′-tetrahydro-3′H,4H,7′H-spiro[isoxazole-5,6′-[2,7]methanopyrido[1,2-a][1,4]diazonin]-12′-yl)oxy)methyl methyl(((S)-pyrrolidin-2-yl)methyl)carbamate], the solubility (thermodynamic) at 24 h in the data set “physchem” came out at 1480 µg/mL (≈ 2.19 mM). This molecule yielded a CC50 at 5 days in the data set “in vitro” of 14700 nM. Besides, the EC50 in the data set on HIV-1 (IIIB) (setting [1]) came out at 1.61 nM.

A word on the thermodynamic solubility: it is the concentration in solution at equilibrium with solid. For orientation: EC50 means the concentration at which the effect is half-maximal.
